Test results reported in the supplement of paper PMC10307832.

How the values were obtained:
Assay in all cases: relative viability (nuclei count vs DMSO), 5 days (fraction); higher = more cells survive
RO-3306 + Vorinostat = compound: C1=CC2=C(C=CC(=C2)C=C3C(=O)NC(=NCC4=CC=CS4)S3)N=C1 [RO-3306] + O=C(CCCCCCC(=O)Nc1ccccc1)NO [Vorinostat] (partner 1 µM)
Summary of the method: (§1)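 Lung cancer cell lines were seeded in 1536-well plates and dosed by pin tool the next day, with either a single drug or a fixed anchor-drug dose combined with five library-drug doses (not always all listed) spaced in √10 steps. Five days later, one step fixed the cells and stained their nuclei (final 0.05% Triton X-100, 1% formaldehyde, 1 ug/ml Hoechst), and nuclei were counted on 4× images. Relative viability is the nuclei count in treated wells divided by the count in vehicle wells, and each value is the median of duplicate plates.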

RO-3306 + Navitoclax = compound: C1=CC2=C(C=CC(=C2)C=C3C(=O)NC(=NCC4=CC=CS4)S3)N=C1 [RO-3306] + CC1(C)CCC(c2ccc(Cl)cc2)=C(CN2CCN(c3ccc(C(=O)NS(=O)(=O)c4ccc(N[C@H](CCN5CCOCC5)CSc5ccccc5)c(S(=O)(=O)C(F)(F)F)c4)cc3)CC2)C1 [Navitoclax] (partner 0.5 µM)
Summary of the method: as §1

RO-3306 + Pemetrexed = compound: C1=CC2=C(C=CC(=C2)C=C3C(=O)NC(=NCC4=CC=CS4)S3)N=C1 [RO-3306] + Nc1nc2[nH]cc(CCc3ccc(C(=O)N[C@@H](CCC(=O)O)C(=O)O)cc3)c2c(=O)[nH]1 [Pemetrexed] (partner 0.2 µM)
Summary of the method: as §1

[1] = compound: O=S(=O)(c1ccccc1)N(CC(F)(F)F)c1ccc(C(O)(C(F)(F)F)C(F)(F)F)cc1 + Cc1nc(Nc2ncc(C(=O)Nc3c(C)cccc3Cl)s2)cc(N2CCN(CCO)CC2)n1 [Dasatinib] (partner 0.075 µM)
Summary of the method: as §1

Row | Cell Line | relative viability (RO-3306 + Vorinostat; first compound 0.01 µM) | relative viability (RO-3306 + Vorinostat; first compound 0.03162 µM) | relative viability (RO-3306 + Vorinostat; first compound 0.1 µM) | relative viability (RO-3306 + Vorinostat; first compound 0.3162 µM) | relative viability (RO-3306 + Vorinostat; first compound 1 µM) | relative viability (RO-3306 + Navitoclax; first compound 0.01 µM) | relative viability (RO-3306 + Navitoclax; first compound 0.03162 µM) | relative viability (RO-3306 + Navitoclax; first compound 0.1 µM) | relative viability (RO-3306 + Navitoclax; first compound 0.3162 µM) | relative viability (RO-3306 + Navitoclax; first compound 1 µM) | relative viability (RO-3306 + Pemetrexed; first compound 0.01 µM) | relative viability (RO-3306 + Pemetrexed; first compound 0.03162 µM) | relative viability (RO-3306 + Pemetrexed; first compound 0.1 µM) | relative viability (RO-3306 + Pemetrexed; first compound 0.3162 µM) | relative viability (RO-3306 + Pemetrexed; first compound 1 µM) | relative viability ([1]; first compound 0.8 µM) | relative viability ([1]; first compound 2.53 µM) | relative viability ([1]; first compound 8 µM)
1 | NCI-H2023 | 0.684 | 0.524 | 0.651 | 0.806 | 0.5 | 1.05 | 0.912 | 0.898 | 0.943 | 1.01 | 0.233 | 0.23 | 0.209 | 0.274 | 0.262 | 0.547 | 0.434 | 0.369
2 | HOP-62 | 0.615 | 0.44 | 0.486 | 0.611 | 0.638 | 1.14 | 1.01 | 1.07 | 0.937 | 1.33 | 0.371 | 0.438 | 0.318 | 0.307 | 0.416 | 0.716 | 0.552 | 0.544
3 | LC-2-ad | 0.773 | 0.635 | 0.78 | 0.695 | 0.626 | 0.451 | 0.465 | 0.437 | 0.408 | 0.378 | 0.291 | 0.26 | 0.278 | 0.278 | 0.27 | 0.655 | 0.525 | 0.627
4 | NCI-H2347 | 0.539 | 0.541 | 0.51 | 0.532 | 0.701 | 0.947 | 0.645 | 1.03 | 0.772 | 0.93 | 0.44 | 0.37 | 0.428 | 0.433 | 0.437 | 0.263 | 0.24 | 0.289
5 | NCI-H1651 | 0.559 | 0.535 | 0.529 | 0.544 | 0.511 | 0.982 | 0.854 | 1.04 | 1.14 | 0.882 | 0.644 | 0.569 | 0.554 | 0.556 | 0.54 | 0.486 | 0.434 | 0.306
6 | COR-L23 | 0.51 | 0.412 | 0.489 | 0.394 | 0.344 | 0.734 |  | 0.974 | 1.01 | 0.937 | 0.179 | 0.216 | 0.214 | 0.194 | 0.187 | 0.591 | 0.461 | 0.5
7 | NCI-H1755 | 0.881 | 0.856 | 0.771 | 0.745 | 0.706 | 1.1 | 0.919 | 1.04 | 1.01 | 1.05 | 0.656 | 0.505 | 0.446 | 0.426 | 0.404 | 0.373 | 0.368 | 0.429
8 | NCI-H2170 | 0.901 | 0.568 | 0.886 | 0.842 | 0.856 | 0.571 | 0.447 | 0.593 | 0.62 | 0.595 | 0.314 | 0.311 | 0.241 | 0.251 | 0.271 | 0.568 | 0.588 | 0.444
9 | NCI-H23 | 0.828 |  | 0.547 | 0.55 | 0.501 | 0.965 | 0.842 | 0.87 | 0.881 | 0.613 | 0.695 |  | 0.723 | 0.591 | 0.617 | 1.03 | 1.04 | 0.907
10 | NCI-H1395 | 0.738 | 0.649 | 0.579 | 0.689 | 0.629 | 1.13 | 1.38 | 1.11 | 1.04 | 0.978 | 0.678 | 0.751 | 0.728 | 0.726 | 0.549 | 0.321 | 0.375 | 0.414
11 | LOU-NH91 | 0.857 | 0.828 | 0.854 | 0.871 | 0.866 | 0.666 | 0.612 | 0.702 | 0.685 | 0.645 | 0.354 | 0.346 | 0.346 | 0.399 | 0.373 | 0.576 | 0.567 | 0.68
12 | NCI-H647 | 0.708 | 0.512 | 0.371 | 0.6 | 0.473 | 1.45 | 1.24 | 1.07 | 1.24 | 0.966 | 0.177 | 0.157 | 0.153 | 0.174 | 0.167 | 0.142 | 0.162 | 0.208
13 | HCC-78 | 0.428 | 0.457 | 0.367 | 0.494 | 0.418 | 0.814 | 0.767 | 0.675 | 0.92 | 0.682 | 0.948 | 0.83 | 0.91 | 0.9 | 0.923 | 0.374 | 0.336 | 0.919
14 | 201T | 1.03 | 0.974 | 0.959 | 1.03 | 1.02 | 1.2 | 1.21 | 1.14 | 1.23 | 1.23 | 0.277 | 0.315 | 0.358 | 0.32 | 0.41 | 0.463 | 0.435 | 0.497
15 | ChaGo-K-1 | 0.808 | 0.654 | 0.699 | 0.782 | 0.557 | 0.971 | 1.23 | 0.629 | 0.952 | 0.675 | 0.319 | 0.266 | 0.331 | 0.259 | 0.249 | 0.706 | 0.648 | 0.637
16 | NCI-H1993 | 0.82 | 0.707 | 0.751 | 0.822 | 0.716 |  | 0.926 | 0.892 | 0.864 | 0.83 | 0.627 | 0.5 | 0.624 | 0.573 | 0.539 | 0.451 | 0.441 | 0.544
17 | EMC-BAC-2 | 0.417 | 0.354 | 0.351 | 0.534 | 0.161 | 1.44 | 0.984 | 1.25 | 1.24 | 1.14 | 0.427 | 0.423 | 0.431 | 0.458 | 0.394 | 0.368 | 0.325 | 0.353
